# From patent US9593305B2, “Differentiation of pluripotent stem cells” (Janssen Biotech, Inc., priority 2008, dated 2017)
# How the values were obtained:
# [1] = test system: H1 human embryonic stem cells; assay: Definitive endoderm formation with GDF family members, SOX17 and cell number (Example 13); format: cell-based; settings: for SOX17 expression, reagent alone: 20 ng/ml Wnt3a or 2.5 μM compound alone, four days; for SOX17 induction in combination with GDF-8: 2.5 μM compound with 100 ng/ml GDF-8, exceeding activin A/Wnt3a positive control
# Protocol: Stock cultures of human embryonic stem cells (H1 human embryonic stem cell line) were maintained in an undifferentiated, pluripotent state on reduced growth factor […]™ (BD Biosciences; Cat #356231)-coated dishes in MEF conditioned medium with passage on average every four days. Passage was performed by exposing cell cultures to a solution of 1 mg/ml dispase (Invitrogen; Cat #17105-041) for 5 to 7 minutes at 37° C. followed by rinsing the monolayer with MEF conditioned culture medium and gentle scraping to recover cell clusters. Clusters were centrifuged at low speed to collect a cell pellet and remove residual dispase. Cell clusters were split at a 1:3 or 1:4 ratio for routine maintenance culture or a 1:1 ratio for immediate assay. All human ES cell lines were maintained at passage numbers less than 50 and routinely evaluated for normal karyotype and absence of mycoplasma.
# Cell clusters were evenly resuspended in MEF conditioned medium supplemented with 8 ng/ml bFGF and seeded onto reduced growth factor […]™-coated 96-well Packard VIEWPLATES (PerkinElmer; Cat #6005182) in volumes of 0.1 ml/well. Daily feeding was conducted by aspirating spent culture medium from each well and replacing with an equal volume of fresh medium. Plates were maintained at 37° C., 5% CO2 throughout the duration of assay.
# The assay was initiated by aspirating the culture medium from each well and adding back aliquots (100 μl) of test medium. Test conditions were performed in triplicate over a total four-day assay period, feeding on day 1 and day 3 by aspirating and replacing the medium from each well with fresh test medium. Various members of the GDF family of proteins were obtained for testing as follows: GDF-3 (PeproTech; Cat #120-22); GDF-5 (DePuy Orthopaedics, Inc., a Johnson & Johnson company); GDF-8 (R&D Systems; Cat #788-G8); GDF-10 (R&D Systems; Cat #1543-BP); GDF11 (PeproTech; Cat #120-11); GDF-15 (R&D Systems; Cat #957-GD). On the first day of assay, all wells received an aliquot (80 μl) of basal medium DMEM:F12 medium (Invitrogen; Cat #11330-032) supplemented with 0.5% fetal bovine serum (Hyclone; Cat #SH30070.03). A series of five different control or experimental test samples was created to evaluate activin A or various GDFs in combination with Wnt3a or Compound 34 or Compound 56. These test samples were added in 20 μl aliquots (5× concentrated) to appropriately matched assay wells to yield a final assay volume of 100 μl in each well at the final assay conditions indicated. In the first set of control samples, the following conditions were tested: 1) no additive (i.e. no supplementary growth factor or small molecule); 2) 100 ng/ml activin A (PeproTech; Cat #120-14) in combination with 20 ng/ml Wnt3a (R&D Systems; Cat #1324-WN/CF); 3) 20 ng/ml Wnt3a alone; 4) Compound 34 alone (2.5 μM) without any growth factor or small molecule; 5) Compound 56 alone (2.5 μM) without any growth factor or small molecule. In the second set of test samples, the following conditions were tested in combination with 100 ng/ml GDF3: 1) no additive (i.e. GDF-3 alone); 2) 20 ng/ml Wnt3a; 3) 20 ng/ml Wnt3a with Compound 34 (2.5 μM); 4) Compound 34 (2.5 μM); 5) Compound 56 (2.5 μM); and 6) 20 ng/ml Wnt3a with Compound 56 (2.5 μM). In the third set of test samples, each of the six conditions was combined with 100 ng/ml GDF-5. In the fourth set of test samples, each of the six conditions was combined with 100 ng/ml GDF-8. In the fifth set of test samples, each of the six conditions was combined with 100 ng/ml GDF-10. In the sixth set of test samples, each of the six conditions was combined with 100 ng/ml GDF-11. In the seventh set of test samples, each of the six conditions was combined with 100 ng/ml GDF-15. On the third day of assay, all wells for all test samples, received 100 ng/ml Activin A or 100 ng/ml respective GDF growth factor, without Wnt3a or Compound 34 or Compound 56, diluted into DMEM:F12 medium supplemented with 2% FBS. […]
# [2] = test system: H1 human embryonic stem cells; assay: Definitive endoderm formation with TGF superfamily members, SOX17 and cell number (Example 14); format: cell-based; settings: growth factor with 20 ng/ml Wnt3a, three days
# Protocol: Clusters were centrifuged at low speed to collect a cell pellet and remove residual dispase. […] All human embryonic stem cell lines were maintained at passage numbers less than 50 and routinely evaluated for normal karyotype and absence of mycoplasma.
# Cells were washed again three times with PBS and blocked with 4% chicken serum (Invitrogen; Cat #16110082) in PBS for 30 minutes at room temperature. […] Plates were washed once with PBS and left in 100 μl/well PBS for imaging.
Molecule,"SOX17 expression, reagent alone [1]",SOX17 induction in combination with GDF-8 [1],SOX17 expression in combination with Wnt3a [2]
"Cc1c[nH]c(-c2cnc(NCCNc3ccc(C#N)cn3)nc2-c2ccc(Cl)cc2Cl)n1 [Compound 56, 6-[(2-{[4-(2,4-Dichlorophenyl)-5-(4-methyl-1H-imidazol-2-yl)pyrimidin-2-yl]amino}ethyl)amino]pyridine-3-carbonitrile]",failed to induce SOX17 expression,robust induction of SOX17,
"GDF-8: growth factor GDF-8, also known as myostatin, member of the TGF-β family",,,significant induction of SOX17 expression
"Activin A: recombinant human activin A (PeproTech), TGF-beta family member",,,robust expression of SOX17
"O=C1CCN2CCN(CC2)Cc2cc(Cl)cc(c2)Nc2ncnc(n2)-c2cncc(c2)CCCN1 [Compound 34, 5-Chloro-1,8,10,12,16,22,26,32-octaazapentacyclo[24.2.2.1˜3.7˜0.1˜9,13˜0.1˜14.18˜]tritriaconta-3(33), 4,6,9(32), 10,12,14(31), 15,17-nonaen-23-one]",failed to induce SOX17 expression,robust induction of SOX17,
